# Marks after values point to notes of the source that are not given here.
# Experiment: Surface tension above critical micelle concentration in water (pendant drop method)
# Format: physicochemical
# Details: 5 wt % of the compound in demineralized water, picture 5 seconds after drop
# Procedure: The surface tension of a liquid/air interface can be determined by the “pendant drop method” as described in “Encyclopedia of Surface and Colloid Science” by Marcel Dekker, 2002.
# Samples were prepared as 5 wt % of the compound in demineralized water mixed in a 50 mL PE bottle. At 5 wt % it is ensured that concentrations are well above the critical micelle concentration. The samples were left over-night on a shaking table to ensure saturation and/or mixing. The measurements by “pendant drop method” were performed with DataPhysics OCA-15 pus, Dynamic Contact Angle, using software SCA202 V 4.5.8. The needle was a Disposable needle SNP-D 165/137, and the volume drop was 15 microliters.
# The picture from which the surface tension is calculated is taken 5 seconds after the drop is forced out of the syringe.
row,Surface tension,Substance
1,43 mN/m,PEG-6 stearate
2,35 mN/m,PEG-12 stearate
3,36 mN/m,PEG-20 oleyl ether
4,43 mN/m,PEG-20 sorbitan monostearate

row,Substance,Surface tension
1,"PEG-12 nonylphenol, branched",32 mN/m

# Experiment: not given
# Details: From supplier data sheet; cited from earlier work
row,Substance,Surface tension
1,PEG-6 decyl alcohol,26.6* mN/m
2,PEG-7 lauryl alcohol,29* mN/m
3,PEG-8 branched C12-C14 secondary alcohol,27* mN/m
4,PEG-11 branched C12-C14 secondary alcohol,30* mN/m
5,PEG-22 oleyl alcohol,44* mN/m
